Molecules are shown by their SMILES. Where “and” joins values, the source holds several entries; their conditions need not be identical. Identical values can stand only once. Entries after “also recorded” stand apart in the source; their conditions may differ.

Data set [1] deals with HSV-1. Conditions: single intravitreal injection; cited from earlier work.
For data set [2], the system named is HSV-1. In words: HSV-1 rabbit retinitis pretreatment study. Conditions: for rabbits that developed retinitis: 3-week pretreatment, 100 μg/eye or equivalent dose. The data set is classed as in vivo. Here is the method: (§1) For the pharmacokinetic studies, the highest non toxic dose from the results of the toxicity studies, 100 μg/eye, was intravitreally injected into 24 eyes of 16 rabbits, and the remaining 8 eyes were injected with the same volume of 5% dextrose as control. Two animals, 3 eyes with drug and 1 eye with 5% dextrose, were used at each time point. The time points used were post-injections on day 1, day 3, week 1, week 2, week 3, week 5, week 8, and week 10. After animal sacrifice, globes were enucleated and kept on ice before freezing and dissecting. The globes were then submerged in −40 C.° 2-methylbutane in a beaker sitting in a dry ice ethanol bath for 30 seconds. The frozen globe was cut into two halves through the optic nerve and further dissected under a surgical microscope to separate the vitreous and retina. These different tissues from the same eyes were separately stored in the pre-weighed and pre-labeled glass vials. The vials were kept in −70 C for HPLC analysis. 3. HSV-1 rabbit retinitis treatment study of HDP-cCDV: For the retinitis intervention study, 72 rabbits were used, including 14 rabbits for the treatment study and 58 for the pretreatment study. Only the right eye of each rabbit was used. Ophthalmoscopic retinitis grading was performed using a previously reported method with a standardized grading scheme.^7 For the treatment study, the right eyes of 14 rabbits were intravitreally injected with 0.06 mL of a 5×10^−5 dilution of 10^−7.6 mean tissue culture infective dose (TCID 50)/mL HSV-1. When retinitis developed and reached grade 1 (earliest detected retinitis grade: 1 or 2), 5 infected eyes received 100 micrograms of HDP-cCDV in 0.1 mL 5% dextrose, 4 infected eyes received an equivalent dose of free CDV, and the other 5 infected eyes received 5% dextrose. For the pretreatment study, 100 μg/eye was tested. 58 rabbits were divided into four groups: the 21 day, 42 day, 68 day, and 98 day groups. 15 rabbits were used for each time point of the pretreatment study (except 13 rabbits were used for the 98 day time point). At each time point 5 rabbits received 100 micrograms (in 0.1 ml 5% dextrose) of HDP-cCDV, 5 rabbits received an equivalent dose of CDV, and 5 rabbits received 5% dextrose (for the 98 day pre-treatment only 3 rabbits were used for HDP-cCDV). The HSV-1 virus dose, injection method, and clinical retinitis grading were done as previously described.^2,7 Rabbits were killed 2 weeks after development of retinitis. Retinitis was graded on day 3, 5, 7, 9, 11, 14. Rabbits without retinitis 3 or 4 weeks after HSV-1 inoculation were sacrificed.
For the 3-week pretreatment study, all five rabbits that received intravitreal injection of 5% dextrose developed typical retinitis. In contrast, none of the rabbits that received the intravitreal injection of HDP-cCDV or CDV developed retinitis (Table 1). For the 47-day pretreatment, at day 7 after virus inoculation all control eyes developed retinitis with a median grade of 4. […] In contrast, out of 5 rabbits that received HDP-cCDV pretreatment, only 2 developed grade 2 retinitis. There is a significant difference in retinitis scores between HDP-cCDV pretreated eyes and CDV pretreated eyes or control eyes (p<0.05, Nonparametric Tukey-type tests). […] The other two groups (10 eyes) with dextrose or CDV pretreatment all had grade 4 retinitis. The difference in retinitis scores among the three groups was very significant (P=0.0046, Kruskal-Wallis Tests) (Table 1). For the 100-day pretreatment study, one of four rabbits in the HDP-cCDV pretreated group died before virus inoculation. […] The HDP-cCDV pretreated group had lower retinitis scores than the retinitis scores in the dextrose pretreated group (P<0.05, Nonparametric Tukey-type tests).

For data set [3] the following is noted: literature comparison; cited from earlier work.
Data set [4] deals with HSV-1. In words: HSV-1 rabbit retinitis treatment study. The data set is classed as in vivo. Particulars: intravitreal drug after induction of retinitis; for thickness of the retina (histology): 5% dextrose eyes 46 μm, P<0.05. The protocol: as §1
4. Histologic evaluation of retinal damage and choroidal inflammation for the rabbit eyes in the treatment group. […] Thickness was measured with a reticule installed in the eyepiece of the microscope. […]

The test system of the next data set is laser induced rat CNV. In words: Prophylactic treatment of laser induced rat CNV (fluorescein angiograph). The data set is classed as in vivo. The text has this:
The retina was normal elsewhere.
Ara-G has been used as an antiproliferative agent to treat human leukemia and lymphoma.^11,12 Ara-G can cause apoptosis of fast growing cells by incorporating into the cell's DNA to inhibit the proliferation.^13 Normal cells in the retina are differentiated cell populations and are not sensitive to Ara-G. In contrast, abnormal proliferating cells in proliferative vitreoretinopathy experience vigorous DNA synthesis and are sensitive to Ara-G. The lipid prodrug of Ara-G was chosen to be useful to treat proliferative vitreoretinopathy or other intraocular proliferating disorders. […] No intraocular drug toxicity was observed except for the local retina contact induced retinal toxicity from the high dose injections. It was hypothesized that the local retinal toxicity could be eliminated by using small crystalline particles, especially when used in a human eye with a much larger vitreous volume than rabbit (4 ml in human eye versus 1.4 ml in rabbit eye). To quickly gather the therapeutic data of this new compound on proliferation, 3 μg of HDP-P-Ara G (equivalent to 75 μg in the rabbit eye [(25+125)/2]) was injected into the right eye of each rat 3 days before induction of CNV by laser. The drug led to a 39% reduction of leaking laser burns in this CNV rat model (39% versus 66%, p=0.009). […] HDP-P-Ara G could be useful for prevention or treatment of the devastating sight-threatening eye disease, age related macular degeneration.

Data set [5] can be described thus: HDP-P-Ara G intravitreal toxicity.
The conditions of data set [6]: previously determined; cited from earlier work.
Data set [7] is described as follows: Intravitreal toxicity of HDP-cCDV. The data set is classed as in vivo, rabbit. Here is the method:
All procedures were adherent to the ARVO Statement for the Use of Animals in Ophthalmic and Vision Research Intravitreal pharmacokinetics of small particle formulation of HDP-P-GCV: Three rabbits received 8.85 μmoles of the drug in their right eyes and 2.8 μmoles in the left eye. 2.8 μmole was previously determined to be non toxic.^2 Vitreous sampling was performed on both eyes of each rabbit at post injection week 1, week 2, week 3, week 5, week 8, week 12, and week 15. 50 to 100 μl of vitreous fluid was aspirated and placed in a pre-weighed vial for HPLC analysis of HDP-P-GCV levels as described before. 2. Intravitreal toxicity and pharmacokinetics of HDP-cCDV: For toxicity studies, five doses (10 μg or 0.018 μmole, 55 μg or 0.1 μmole, 100 μg or 0.18 μmole, 550 μg or 1.01 μmole, 1000 μg or 1.84 μmole in 50 μl of 5% dextrose) were tested in 8 rabbits, 16 eyes for 8 weeks. One eye of each animal was injected with drug and the fellow eye was injected with 5% dextrose as the control. Before drug injection, baseline IOP and fundus examination were documented. Drug or 5% dextrose was intravitreally injected into vitreous cavity as previously described.^2 After injection, eyes were monitored with a hand held tonometer (Tonopen, Medtronic, Jacksonville, Fla.), slit-lamp, and indirect ophthalmoscope at day 3, week 1, week 2, week 3, week 5, and week 8. […]

For data set [8] the following is noted: rabbit, in vivo, 100 ug. Here is the method: For the pharmacokinetic studies, the highest non toxic dose from the results of the toxicity studies, 100 μg/eye, was intravitreally injected into 24 eyes of 16 rabbits, and the remaining 8 eyes were injected with the same volume of 5% dextrose as control. Two animals, 3 eyes with drug and 1 eye with 5% dextrose, were used at each time point. The time points used were post-injections on day 1, day 3, week 1, week 2, week 3, week 5, week 8, and week 10. After animal sacrifice, globes were enucleated and kept on ice before freezing and dissecting. The globes were then submerged in −40 C.° 2-methylbutane in a beaker sitting in a dry ice ethanol bath for 30 seconds. The frozen globe was cut into two halves through the optic nerve and further dissected under a surgical microscope to separate the vitreous and retina. These different tissues from the same eyes were separately stored in the pre-weighed and pre-labeled glass vials. The vials were kept in −70 C for HPLC analysis. 3. […] When retinitis developed and reached grade 1 (earliest detected retinitis grade: 1 or 2), 5 infected eyes received 100 micrograms of HDP-cCDV in 0.1 mL 5% dextrose, 4 infected eyes received an equivalent dose of free CDV, and the other 5 infected eyes received 5% dextrose. […]

The nature of data set [9]: Laser light scattering particle size analysis. The data set is classed as physicochemical. Conditions: dry powder, laser diffraction. The protocol: Unmodified HDP-P-GCV and microfluidized HDP-P-GCV were subjected to laser light scattering particle size analysis at Cirrus Pharmaceuticals, Inc., Durham, N.C. Measurements were performed using a HELOS laser diffraction instrument (Sympatec, Lawrenceville, N.J.), equipped with a R3 lens (0.5 to 175 microns).
For each measurement, approximately 100 mg of dry sample was dispersed at a feed rate of 75% using the VIBRI and RODOS attachments set at a main pressure of 4.0 bar and aventury pressure of 100 mbar. The triggering conditions were set to start measurement when channel 25 e 1% and stop when channel 25 d 0.5%. Data were analyzed using the Fraunhoffer method by mean of the WINDOX 3.2 release 4 software. HDP-cCDV: cCDV was prepared from CDV as described previously^3 except that the compound was isolated as the dicyclohexyl-morpholinocarboxamidine salt. The scheme of the synthesis is illustrated in FIG. 1. The purity (greater than 98%) of these compounds used in this study was confirmed by thin layer chromatography, nuclear magnetic resonance spectroscopy, and mass spectroscopy as reported previously.^4,5
An aqueous slurry of HDP-P-GCV was subjected to five consecutive cycles of microfluidization. […] Finally, an untreated formulation of HDP-cCDV powder (Panel C) was also analyzed.

Setting [10] is: 47-day pretreatment, day 7 after virus inoculation.
Setting [11] is: 68-day pretreatment, day 14 following virus inoculation.

`Nc1nc(O)c2ncn(COC(CO)CO)c2n1` [GCV, ganciclovir, reference compound]: the “duration of prevention of HSV-1 viral infection of retina” value with HSV-1 [1] was “less than one-week protection”.

With `Nc1ccn(C[C@@H](CO)OCP(=O)(O)O)c(=O)n1` [CDV, cidofovir, reference compound], the “rabbits that developed retinitis” value in the data set on HSV-1 [2] is “none”. In the data set with HSV-1 [2] (setting [10]), the median retinitis grade is reported as 3 and the “rabbits that developed retinitis (out of 5)” value is recorded as “all developed retinitis”. For the same molecule, in the data set with HSV-1 [2] (setting [11]), the retinitis grade worked out at 4. Also, the vitreous half-life in data set [3] was 20 h. Also, in the data set with HSV-1 [4], the vitreous cloudiness entry was “noticeably less severe than the control eyes” and the “thickness of the retina (histology)” value turned out to be 95 μm.

For the molecule `CCCCCCCCCCCCCCCCOCCCOP(=O)(O)OCC1OC(n2cnc3c(=O)[nH]c(N)nc32)C(O)C1O` (stereo not shown) [HDP-P-Ara G, 1-O-hexadecyloxypropyl-phospho-arabinofuranosylguanosine], the “retinal toxicity in the rat eyes” value with laser induced rat CNV (3 μg intravitreal) is given as “did not cause any retinal toxicity”. Also, the “reduction of CNV formation (leaking laser burns)” value in the data set on laser induced rat CNV (3 μg intravitreal 3 days before laser, versus control eyes) is 39%. The “burns actively leaking in treated eyes” value in the data set with laser induced rat CNV (3 μg intravitreal 3 days before laser, control eyes 66%, p=0.009) is 40% and 39%. Further, the pathology study entry in data set [5] (25 μg intravitreal injections) was “no toxicity”; in data set [5] (125 μg intravitreal injections) it was “localized retinal structural disturbance and proliferation or hypertrophy of retinal pigment epithelium”. Besides, the ERGs entry in data set [5] (all eyes including the ones with local retinal toxicity) is “normal”. Also, in [5] (high dose (125 μg/eye), where drug depot touched the retina), the clinical toxicity observation result was “local retinal toxicity that presented as a local retinal disturbance of fundus pigmentation; also recorded: local retinal depigmentation area”. Further, the “time drug depot was observable” value in [5] (low dose (25 μg/eye)) came to 2 weeks.

For `CCCCCCCCCCCCCCCCOCCCOP(=O)(O)OCC(CO)OCn1cnc2c(=O)[nH]c(N)nc21` (stereo not shown) [HDP-P-GCV, Hexadecylpropanediol-3-phospho-ganciclovir], the “duration of prevention of HSV-1 viral infection of retina” value in the data set on HSV-1 [1] was 20 weeks. The “non toxic intravitreal dose” value in data set [6] is 2.8 µmol.

As for `Nc1ccn(C[C@H]2COP(=O)(O)CO2)c(=O)n1` [cCDV, cyclic cidofovir], the vitreous half-life in data set [3] was 10 h.

Regarding `CCCCCCCCCCCCCCCCOCCCOP1(=O)COC(Cn2ccc(N)nc2=O)CO1` (stereo not shown) [HDP-cCDV, 1-O-hexadecyloxypropyl-cyclic-cidofovir], the “rabbits that developed retinitis” value in the data set with HSV-1 [2] is given as “none”. In the data set with HSV-1 [2] (setting [10]), the “rabbits that developed retinitis (out of 5)” value came out at 2 and the “retinitis grade of the rabbits that developed retinitis” value is reported as 2. For the same molecule, in the data set with HSV-1 [2] (setting [11]), the retinitis outcome is “only two rabbits developed grade 3 and grade 4 retinitis, the other three rabbits had complete protection”. Besides, the retinitis outcome in the data set with HSV-1 [2] (100-day pretreatment, three rabbits, day 9) was “one did not develop retinitis, and the other two had grade 3 retinitis”. Besides, in the data set on HSV-1 [2] (single intravitreal pretreatment 100 μg/eye), the “duration of pharmacologic effect against HSV-1 infection of the rabbit retina” value is “at least 100 days”. The toxicity findings entry in data set [7] (550 μg/eye and 1000 μg doses, one eye each) was “local cataract and mild iritis in two eyes”. The highest non-toxic dose in data set [7] (intravitreal injection, 8 weeks observation) stood at 100 μg/eye. The estimated vitreous half-life in data set [8] is recorded as 6.3 days. Further, in the data set on HSV-1 [4], the vitreous cloudiness entry was “noticeably less severe than the control eyes” and the “thickness of the retina (histology)” value is listed as 80 μm. Moreover, the “volume median diameter (×50)” value in data set [9] was found to be 8.9 microns.
